Source: patent US20200179294A1, “MANGANOPORPHYRIN-POLYPHENOL MULTILAYER CAPSULES AS RADICAL AND REACTIVE OXYGEN SPECIES SCAVENGERS” (THE UAB RESEARCH FOUNDATION, priority 2018, published 2020)

Assay: Ellipsometry of dry TA/MnP-PVPON films at pH 5 and pH 2.5 (film stability)
Format: physicochemical
Experimental: The stability of the MnP-PVPON/TA multilayers dried from pH=2.5 was examined since ionization of TA is minimized at this pH (below the pKa of TA), which could result in destabilization of the film.
Ellipsometry: Film thickness was measured using a M2000U spectroscopic ellipsometer (Woollam). Single-side polished silicon wafers 500-μm-thick (University Wafer) of 20 mm×50 mm were cleaned in a mixture of concentrated sulfuric acid and Nocromix (Godax Laboratories) for 24 hours, washed with DI water, dried with a stream of nitrogen (Airgas) and used immediately thereafter. First, a precursor layer of poly(ethyleneimine) (PEI, Sigma-Aldrich) was adsorbed onto the wafer surface from 1 mg mL^−1 PEI aqueous solution for 10 min. After that the deposition of TA, PVPON and MnP-PVPON onto silicon wafers coated with a PEI layer was performed using a 5-mL liquid flow-through cell (Woollam) at pH=5 and pH=7.2 (0.01 M phosphate buffer). The pH values of 0.01 M phosphate buffers were adjusted using 0.1 M HCl and NaOH aqueous solutions. Dry thickness measurements were performed between 400 and 1000 nm at 65, 70, and 75° angles of incidence, while wet thickness studies were monitored at 75° incidence angle. […] The thickness of silicon oxide was determined using known optical constants. […]

Layer thickness: 1.8 nm
Total thickness: 4.1 nm
Compound: O=C(OC[C@H]1O[C@@H](OC(=O)c2cc(O)c(O)c(OC(=O)c3cc(O)c(O)c(O)c3)c2)[C@H](OC(=O)c2cc(O)c(O)c(OC(=O)c3cc(O)c(O)c(O)c3)c2)[C@@H](OC(=O)c2cc(O)c(O)c(OC(=O)c3cc(O)c(O)c(O)c3)c2)[C@@H]1OC(=O)c1cc(O)c(O)c(OC(=O)c2cc(O)c(O)c(O)c2)c1)c1cc(O)c(O)c(OC(=O)c2cc(O)c(O)c(O)c2)c1 [TA, tannic acid]
